Results reported in ChEMBL document CHEMBL1141952, “Conformationally restricted analogs of Combretastatin A-4 derived from SU5416” (Bioorg Med Chem Lett, 2005).

Legend:
[1] = tested on: PC-3; experiment: Antiproliferative activity against androgen-independent prostate cancer PC3 cell line by MTS assay; assay type: functional, cell-based; settings: Homo sapiens
[2] = tested on: MDA-MB-231; experiment: Antiproliferative activity against estrogen-independent breast cancer MDA-MB-231 cell line by MTS assay; assay type: functional, cell-based; settings: Homo sapiens
[3] = biological target: Tubulin (Sus scrofa, UniProt P02554+P02550); experiment: Inhibition of porcine brain tubulin polymerization by GTP-induced assembly
[4] = tested on: MCF7; experiment: Antiproliferative activity against estrogen-dependent breast cancer MCF7 cell line by MTS assay; assay type: functional, cell-based; settings: Homo sapiens

SMILES	IC50 [1]	IC50 [2]	IC50 [3]	IC50 [4]
COc1cc([C@@H]2c3cc4c(cc3[C@H](O)[C@H]3COC(=O)[C@H]23)OCO4)cc(OC)c1OC [PODOFILOX]	0.013 µM	0.008 µM		
COc1ccc2c(c1)NC(=O)/C2=C/c1cc(OC)c(OC)c(OC)c1	0.0082 µM	0.0009 µM	4.5 µM	0.0007 µM
O=C1Nc2ccccc2/C1=C\c1ccc(O)cc1	> 50 µM	17.5 µM	> 40 µM	25.7 µM
O=C1Nc2ccccc2/C1=C\c1cccc(O)c1	> 50 µM	16.9 µM	> 40 µM	31.4 µM
COc1ccc2c(c1)NC(=O)/C2=C/c1ccc(O)cc1	0.64 µM	2.6 µM	18 µM	0.23 µM

Results, then the molecule that gave them:

IC50 [1]	IC50 [2]	IC50 [3]	IC50 [4]	SMILES
0.54 µM	1.4 µM	9.1 µM	0.39 µM	COc1ccc2c(c1)NC(=O)/C2=C/c1cccc(O)c1
44.7 µM	9.4 µM	> 40 µM	19.7 µM	O=C1Nc2cc(O)ccc2/C1=C\c1ccc(O)cc1
19.5 µM	4.3 µM	> 40 µM	8.6 µM	O=C1Nc2cc(O)ccc2/C1=C\c1cccc(O)c1
